# pIC50: −log10 of the molar value.
# Target: T1, recombinant hRIPK2 protein (kinase domain aa 1-299-His-tagged) (Homo sapiens, UniProt O43353)
# T1 construct: kinase domain aa 1-299-His-tagged; purchased Life Technologies PR7829A
# Test: RIPK2 AlphaLISA assay (displacement of bead-bound CZC-8004 from hRIPK2)
# Assay type: binding
# Details: recombinant hRIPK2 kinase domain 10 nM, 2 h at 23° C.
# Description: RIPK2 AlphaLISA® Assay (Amplified Luminescent Proximity Homogeneous Assay)
# A non-specific kinase inhibitor (CZC-8004 Cayman #916603-07-1) bound to an acceptor bead (#6772001 PerkinElmer) was mixed to the recombinant hRIPK2 protein (kinase domain aa 1-299-His-tagged—Life Technologies PR7829A) and a Ni2+-tagged donor beads (#AS101D PerkinElmer). In the presence of an inhibitor, the compound beads displacement from hRIPK2 was followed by signal loss. In a 384-well ProxiPlate@ (Perkin Elmer, 6008280) add:
# 2 μL RIPK2 inhibitor (in DMSO 0.8%).
# 2 μL human recombinant RIPK2 (10 nM diluted in AlphaLISA buffer 1×).
# 4 μL Mix of […] 1/1000 in AlphaLISA buffer 1×.
# Homogenize using a microtiter plate shaker and incubate for 2 h at 23° C.
# Read using EnVision®-Alpha Reader (PerkinElmer) according to manufacturer specifications.
# T1 sequence (O43353 1-299): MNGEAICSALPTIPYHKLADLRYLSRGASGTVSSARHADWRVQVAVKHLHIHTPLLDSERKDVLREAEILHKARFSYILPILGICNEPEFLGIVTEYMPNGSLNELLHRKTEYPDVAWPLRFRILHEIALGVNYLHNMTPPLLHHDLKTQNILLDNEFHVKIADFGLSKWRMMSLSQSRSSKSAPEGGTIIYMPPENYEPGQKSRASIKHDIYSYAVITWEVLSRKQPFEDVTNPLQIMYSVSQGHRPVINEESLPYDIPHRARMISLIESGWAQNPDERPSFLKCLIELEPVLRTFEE
row,pIC50,Structure (SMILES)
1,> 8.00,"COCCO[C@@H]1C[C@H]2COc3nc4c(cnn4cc3OC)-c3cc(O)cc(c3)NCCN2C1=O [Example 128, (12R,14S)-4-hydroxy-18-methoxy-12-(2-methoxyethoxy)-16-oxa-7,10,20,21,24-pentaazapentacyclo[15.5.2. 1^2,6.0^10,^14.0^20,^23]pentacosa-1(23),2,4,6(25),17(24),18,21-heptaen-11-one]"
2,> 8.00,"CCOc1cn2ncc3c2nc1OC[C@@H]1C[C@@H](OCCOC)C(=O)N1CCNc1cc(OC)cc-3c1 [Example 124, (12R,14S)-18-ethoxy-4-methoxy-12-(2-methoxyethoxy)-16-oxa-7,10,20,21,24-pentaazapentacyclo[15.5.2. 1^2,6.0^10,^14.0^20,^23]pentacosa-1(23),2,4,6(25),17(24),18,21-heptaen-11-one]"
3,> 8.00,"COc1cc2cc(c1)-c1cnn3cc(OC)c(nc13)OC[C@@H]1C[C@@H](OCC3COC3)C(=O)N1CCN2 [Example 134, (12R,14S)-4,18-dimethoxy-12-(oxetan-3-ylmethoxy)-16-oxa-7,10,20,21,24-pentaazapentacyclo[15.5.2. 1^2,6.0^10,^14.0^20,^23]pentacosa-1(23),2,4,6(25),17(24),18, 21-heptaen-11-one]"
4,> 8.00,"COCCO[C@@H]1C[C@H]2COc3nc4c(cnn4cc3OCCCN(C)C)-c3cc(cc(OC)c3)NCCN2C1=O [Example 127, (12R,14S)-18-[3-(dimethylamino)propoxy]-4-methoxy-12-(2-methoxyethoxy)-16-oxa-7,10,20,21,24-pentaazapentacyclo[15.5.2. 1^2,6.0^10,^14.0^20,^23]pentacosa-1(23),2,4,6(25),17(24),18,21-heptaen-11-one]"
5,4.96 to 7.00,"CO[C@@H]1C[C@H]2COc3ccn4ncc(c4n3)-c3cc(cc(C4CC4)c3)NCCN2C1=O [Example 108, (12R,14S)-4-cyclopropyl-12-methoxy-16-oxa-7,10,20,21,24-pentaazapentacyclo[15.5.2.1^2,6.0^10,^14.0^20,^23]pentacosa-1(23),2,4,6(25),17(24),18,21-heptaen-11-one]"
6,> 8.00,COCCO[C@@H]1C[C@H]2COc3nc4c(cnn4cc3OCC3(C)COC3)-c3cc(cc(OC)c3)NCCN2C1=O [Example 122]
7,7.00 to 8.00,"CO[C@@H]1C[C@H]2COc3ccn4ncc(c4n3)-c3cc(cc(C(=O)NOC(C)C)c3)NCCN2C1=O [Example 107, (12R,14S)-12-methoxy-11-oxo-N-(propan-2-yloxy)-16-oxa-7,10,20,21,24-pentaazapentacyclo[15.5.2.1^2,6.0^10,^14.0^20,^23]pentacosa-1(23),2,4,6(25),17(24),18,21-heptaene-4-carboxamide]"
8,> 8.00,"CO[C@@H]1C[C@H]2COc3ccn4ncc(c4n3)-c3cc(cc(-c4ncno4)c3)NCCN2C1=O [Example 109, (12R,14S)-12-methoxy-4-(1,2,4-oxadiazol-5-yl)-16-oxa-7,10,20,21,24-pentaazapentacyclo[15.5.2.1^2,6.0^1°,^14.0^2°,^23]pentacosa-1(23),2(25),3,5,17(24),18,21-heptaen-11-one]"
9,> 8.00,COCCO[C@@H]1C[C@H]2COc3nc4c(cnn4cc3OCC3COC3)-c3cc(cc(OC)c3)NCCN2C1=O [Example 144]
10,> 8.00,"COCCO[C@@H]1C[C@H]2COc3nc4c(cnn4cc3OC)-c3cc(F)cc(c3)NCCN2C1=O [Example 129, (12R,14S)-4-fluoro-18-methoxy-12-(2-methoxyethoxy)-16-oxa-7,10,20,21,24-pentaazapentacyclo[15.5.2.1^2,6.0^10,^14.0^20,^23]pentacosa-1(23),2,4,6(25),17(24),18,21-heptaen-11-one]"
11,> 8.00,"COc1cc2cc(c1)-c1cnn3ccc(nc13)OC[C@@H]1C[C@@H](O)C(=O)N1CCN2 [Example 90, (12R,14S)-12-hydroxy-4-methoxy-16-oxa-7,10,20,21,24-pentaazapentacyclo[15.5.2.1^2,6.0^1°,^14.0^2°,^23]pentacosa-1 (23),2,4,6(25),17(24),18,21-heptaen-11-one]"
12,> 8.00,"COCCO[C@@H]1C[C@H]2COc3ccn4ncc(c4n3)-c3cc(cc(C(C)=O)c3)NCCN2C1=O [Example 98, (12R,14S)-4-acetyl-12-(2-methoxyethoxy)-16-oxa-7,10,20,21,24-pentaazapentacyclo[15.5.2.1^2,6.0^10,^14.0^20,^23]pentacosa-1(23),2,4,6(25),17(24),18,21-heptaen-11-one]"

# Continued, compound first:
row,Structure (SMILES),pIC50
1,"COc1cn2ncc3c2nc1OC[C@@H]1C[C@@H](OC)C(=O)N1CCNc1cc-3cc(C(F)(F)F)c1 [Example 2, (12R,14S)-12,18-dimethoxy-4-(trifluoromethyl)-16-oxa-7,10,20,21,24-pentaazapentacyclo[15.5.2.1^2,6.0^10,^14.0^20,^23]pentacosa-1(23),2(25),3,5,17(24),18,21-heptaen-11-one]",> 8.00
2,"CO[C@@H]1C[C@H]2COc3ccn4ncc(c4n3)-c3cc(cc(-c4ncon4)c3)NCCN2C1=O [Example 76, (12R,14S)-12-methoxy-4-(1,2,4-oxadiazol-3-yl)-16-oxa-7,10,20,21,24-pentaazapentacyclo[15.5.2.1^2,6.0^1°,^14.0^2°,^23]pentacosa-1(23),2(25),3,5,17(24),18,21-heptaen-11-one]",> 8.00
3,"CO[C@@H]1C[C@H]2COc3nc4c(cnn4cc3C)-c3cc(cc(OCC4CCOC4)c3)NCCN2C1=O (stereo partly drawn) [Example 50, (12R,14S)-12-methoxy-18-methyl-4-(oxolan-3-ylmethoxy)-16-oxa-7,10,20,21,24-pentaazapentacyclo[15.5.2.1^2,6.0^10,^14.0^20,^23]pentacosa-1(23),2,4,6(25),17(24),18,21-heptaen-11-one]",7.00 to 8.00
4,"CCOC(=O)N1CCN2C(=O)[C@H](OC)C[C@H]2COc2ccn3ncc(c3n2)-c2cc(F)cc1c2 [Example 73, Ethyl (12R,14S)-4-fluoro-12-methoxy-11-oxo-16-oxa-7,10,20,21,24-pentaazapentacyclo[15.5.2.1^2,6.0^1°,^14.0^2°,^23]pentacosa-1(23),2,4,6(25),17(24),18,21-heptaene-7-carboxylate]",7.00 to 8.00
5,"CO[C@@H]1C[C@H]2COc3nc4c(cnn4cc3C)-c3cc(cc(OCC4CC4)c3)NCCN2C1=O [Example 48, (12R,14S)-4-(cyclopropylmethoxy)-12-methoxy-18-methyl-16-oxa-7,10,20,21,24-pentaazapentacyclo[15.5.2.1^2,6.0^10,^14.0^20,^23]pentacosa-1(23),2,4,6(25),17(24),18,21-heptaen-11-one]",4.96 to 7.00
6,"CCO[C@@H]1C[C@H]2COc3ccn4ncc(c4n3)-c3cc(cc(C(N)=O)c3)NCCN2C1=O [Example 60, (12R,14S)-12-ethoxy-11-oxo-16-oxa-7,10,20,21,24-pentaazapentacyclo[15.5.2.1^2,6.0^10,^14.0^20,^23]pentacosa-1(23),2(25),3,5,17(24),18,21-heptaene-4-carboxamide]",> 8.00
7,"CO[C@@H]1C[C@H]2COc3ccn4ncc(c4n3)-c3cc(F)c(F)c(c3)NCCN2C1=O [Example 29, (12R,14S)-4,5-difluoro-12-methoxy-16-oxa-7,10,20,21,24-pentaazapentacyclo[15.5.2.1^2,6.0^10,^14.0^20,^23]pentacosa-1(23),2(25),3,5,17(24),18,21-heptaen-11-one]",> 8.00
8,"CC(C)O[C@@H]1C[C@H]2COc3ccn4ncc(c4n3)-c3cc(F)cc(c3)NCCN2C1=O [Example 9, (12R,14S)-4-fluoro-12-(propan-2-yloxy)-16-oxa-7,10,20,21,24-pentaazapentacyclo[15.5.2.1^2,6.0^10,^14.0^20,^23]pentacosa-1(23),2,4,6(25),17(24),18,21-heptaen-11-one]",> 8.00
9,"CC(C)O[C@@H]1C[C@H]2COc3ccn4ncc(c4n3)-c3cc(Cl)cc(c3)NCCN2C1=O [Example 38, (12R,14S)-4-chloro-12-(propan-2-yloxy)-16-oxa-7,10,20,21,24-pentaazapentacyclo[15.5.2.1^2,6.0^10,^14.0^20,^23]pentacosa-1(23),2,4,6(25),17(24),18,21-heptaen-11-one]",> 8.00
10,"CCO[C@@H]1C[C@H]2COc3nc4c(cnn4cc3C)-c3cc(cc(OC)c3)NCCN2C1=O [Example 39, (2^3Z,2^4E,5^2S,5^4R)-5^4-ethoxy-1^5-methoxy-2^6-methyl-3-oxa-8-aza-2(3,5)-pyrazolo[1,5-a]96yrimidine-5(2,1)-pyrrolidina-1(1,3)-benzenacyclooctaphan-5^5-one]",> 8.00
11,"CO[C@@H]1C[C@H]2COc3ccn4ncc(c4n3)-c3cc(cc(OC(F)F)c3)NCCN2C1=O [Example 13, (12R,14S)-4-(difluoromethoxy)-12-methoxy-16-oxa-7,10,20,21,24-pentaazapentacyclo[15.5.2.1^2,6.0^10,^14.0^20,^23]pentacosa-1(23),2,4,6(25),17(24),18,21-heptaen-11-one]",> 8.00
12,"CO[C@@H]1C[C@H]2COc3ccn4ncc(c4n3)-c3cc(Cl)cc(c3)NCCN2C1=O [Example 4, (12R,14S)-4-chloro-12-methoxy-16-oxa-7,10,20,21,24-pentaazapentacyclo[15.5.2.1^2,6.0^10,^14.0^20,^23]pentacosa-1(23),2(25),3,5,17(24),18,21-heptaen-11-one]",> 8.00
13,"CO[C@@H]1C[C@H]2COc3nc4c(cnn4cc3C)-c3cc(cc(OCc4cccnc4)c3)NCCN2C1=O [Example 49, (12R,14S)-12-methoxy-18-methyl-4-(pyridin-3-ylmethoxy)-16-oxa-7,10,20,21,24-pentaazapentacyclo[15.5.2.1^2,6.0^10,^14.0^20,^23]pentacosa-1(23),2,4,6(25),17(24),18,21-heptaen-11-one]",7.00 to 8.00
